Measured values published in BindingDB's records for doi:10.7270/Q2251GKR (Vanderbilt Screening Center for GPCRs, Ion Channels and …, 2010).

Target: T1, Muscarinic acetylcholine receptor M4 (Rattus norvegicus, UniProt P08485)
T1 sequence (P08485 whole entry): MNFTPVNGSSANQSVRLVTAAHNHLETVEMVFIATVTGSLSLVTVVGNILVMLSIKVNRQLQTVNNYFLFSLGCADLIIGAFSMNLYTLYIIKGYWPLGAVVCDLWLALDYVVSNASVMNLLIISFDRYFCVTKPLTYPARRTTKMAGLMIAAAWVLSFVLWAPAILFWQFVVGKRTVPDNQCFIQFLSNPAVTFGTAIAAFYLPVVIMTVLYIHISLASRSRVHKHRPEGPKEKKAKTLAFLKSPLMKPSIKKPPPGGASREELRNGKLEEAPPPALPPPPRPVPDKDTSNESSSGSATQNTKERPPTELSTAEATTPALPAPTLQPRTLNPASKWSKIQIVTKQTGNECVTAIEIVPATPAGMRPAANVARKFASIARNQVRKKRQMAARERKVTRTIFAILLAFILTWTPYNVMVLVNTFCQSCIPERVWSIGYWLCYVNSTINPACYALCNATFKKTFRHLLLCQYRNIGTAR
Experiment: rat M4 positive allosteric modulator potency, SAR follow-up, cell-based, analogs, calcium mobilization, Gqi5 (AID 1923)

For `Cc1cc(C)c2c(N)c(C(=O)NCc3ccc4c(c3)OCO4)sc2n1` [3-amino-4,6-dimethyl-N-piperonyl-thieno[2,3-b]pyridine-2-carboxamide], the EC50 was 369 nM.
